Reference: patent publication US20110039762A1, “TARGETED ANTIMICROBIAL MOIETIES” (C3 JIAN, INC., priority 2009, published 2011)
“Also recorded” adds a separate entry of the source.

What follows are substances tested on microorganisms (e.g., bacteria, yeasts, fungi) (assay: Targeting peptide binding to target microorganisms (Table 3)). Conditions: microorganism(s) the targeting peptide binds; binding in aqueous buffers depending on peptide solubility, preferably 1x PBS.
“PF-146 (GCGKRRIITKSASRDTR; Peptide with targeting and/or antimicrobial activity)” was tested, and the “Target(s)” value was “S. epidermidis and M. luteus and P. aeruginosa and C. albicans and MRSA and C. jeikeium”. In the case of “PF-147 (RRPRRRRSGHGQSASAA; Peptide with targeting and/or antimicrobial activity)”, the “Target(s)” value is reported as “S. epidermidis and M. luteus and MRSA”. “PF-150 (EIQAKGTG; Peptide with targeting and/or antimicrobial activity)” was tested, and the “Target(s)” value was “S. epidermidis and MRSA”. “PF-151 (EEYPARVPLSGEDVTEARRH; Peptide with targeting and/or antimicrobial activity)” was tested, and the “Target(s)” value was “S. epidermidis and MRSA and E. faecalis and C. jeikeium”. For “PF-152 (VGYFIWKDSHSRKG; Peptide with targeting and/or antimicrobial activity)”, the “Target(s)” value was “S. epidermidis and C. albicans and MRSA and E. faecalis and C. jeikeium”. With “PF-154 (GIKKSKHPSTDDYVVKTTIDSL; Peptide with targeting and/or antimicrobial activity)” the “Target(s)” value was “S. mutans”. “PF-155 (GRYGDDSKERQGRAQ; Peptide with targeting and/or antimicrobial activity)” was tested, and the “Target(s)” value was “C. jeikeium”. In the case of “PF-158 (VRLESRPADLPE; Peptide with targeting and/or antimicrobial activity)”, the “Target(s)” value is reported as “S. epidermidis”. For “PF-159 (TMAFVEKAQLRVPVGDDLPV; Peptide with targeting and/or antimicrobial activity)”, the “Target(s)” value was “S. epidermidis”. For “PF-160 (SFHASLTKNEKPIKSTG; Peptide with targeting and/or antimicrobial activity)”, the “Target(s)” value was “S. epidermidis”. With “PF-161 (RGRALASTATTRPARRRR; Peptide with targeting and/or antimicrobial activity)” the “Target(s)” value was “S. epidermidis; also recorded: M. luteus; also recorded: E. coli; also recorded: C. jejuni”. For “PF-162 (GIRRLHSVENLNREISHRMAGLR; Peptide with targeting and/or antimicrobial activity)”, the “Target(s)” value was “S. epidermidis and MRSA”. “PF-163 (TSWLRAAERQEIGEPTKTFGEKTTSL; Peptide with targeting and/or antimicrobial activity)” was tested, and the “Target(s)” value was “S. epidermidis”. “PF-165 (GPVSVVASLRRGTTVQRHSQNNHNKGKP; Peptide with targeting and/or antimicrobial activity)” was tested, and the “Target(s)” value was “MRSA and C. jejuni”. With “PF-166 (SKAVSRKRSI; Peptide with targeting and/or antimicrobial activity)” the “Target(s)” value was “E. coli; also recorded: C. jeikeium”. For “PF-169 (APGSAADSPRSRADD; Peptide with targeting and/or antimicrobial activity)”, the “Target(s)” value was “S. epidermidis; also recorded: E. coli; also recorded: C. albicans; also recorded: E. faecalis; also recorded: C. jeikeium”. For “PF-172 (LTGVRRPWRAPWAGTSGWALR; Peptide with targeting and/or antimicrobial activity)”, the “Target(s)” value was “S. epidermidis and M. luteus and E. coli and P. aeruginosa and MRSA and E. faecalis and C. jejuni”. For “PF-174 (RGGDSPARRRPGLAGPGGPG; Peptide with targeting and/or antimicrobial activity)”, the “Target(s)” value was “S. epidermidis; also recorded: P. aeruginosa; also recorded: C. jeikeium”. For “PF-177 (VTSEPGIAHDIRLLPRAAAFR; Peptide with targeting and/or antimicrobial activity)”, the “Target(s)” value was “M. luteus and MRSA and E. faecalis and C. jeikeium”. In the case of “PF-181 (GIAPRRNEWGAVGGR; Peptide with targeting and/or antimicrobial activity)”, the “Target(s)” value is reported as “S. epidermidis and M. luteus and E. coli and MRSA and E. faecalis and C. jeikeium”. For “PF-182 (LPATRDKTRVPASVAGAP; Peptide with targeting and/or antimicrobial activity)”, the “Target(s)” value was “S. epidermidis; also recorded: M. luteus; also recorded: E. coli; also recorded: E. faecalis; also recorded: C. jeikeium”. For “PF-183 (KPGISVENRQ; Peptide with targeting and/or antimicrobial activity)”, the “Target(s)” value was “S. epidermidis and M. luteus and E. coli and C. albicans and MRSA and E. faecalis and C. jeikeium”. In the case of “PF-184 (LIADRHIRA; Peptide with targeting and/or antimicrobial activity)”, the “Target(s)” value is reported as “S. epidermidis and M. luteus and E. coli and P. aeruginosa and C. albicans and MRSA and C. jeikeium”. In the case of “PF-185 (RPAQARQGPGGLIADRHIRA; Peptide with targeting and/or antimicrobial activity)”, the “Target(s)” value is reported as “E. coli; also recorded: P. aeruginosa”. “PF-187 (EIQKIAKGVSGQVYGPSRQITISKKR; Peptide with targeting and/or antimicrobial activity)” was tested, and the “Target(s)” value was “S. epidermidis and M. luteus and E. coli and MRSA”. In the case of “PF-189 (GNLTRSREAARATQ; Peptide with targeting and/or antimicrobial activity)”, the “Target(s)” value is reported as “S. epidermidis and M. luteus and C. albicans and MRSA and E. faecalis and C. jejuni”. “PF-193 (PPHCPPGHAKKGWC; Peptide with targeting and/or antimicrobial activity)” was tested, and the “Target(s)” value was “S. epidermidis and M. luteus and E. coli and MRSA and E. faecalis and C. jejuni”. For “PF-194 (MKGNKLATAHEQPVKNSAPPL; Peptide with targeting and/or antimicrobial activity)”, the “Target(s)” value was “C. jeikeium”. With “PF-195 (EMAEGSADDRLRKTPRDC; Peptide with targeting and/or antimicrobial activity)” the “Target(s)” value was “S. epidermidis; also recorded: M. luteus; also recorded: E. faecalis; also recorded: C. jeikeium”. For “PF-197 (CNALLRRGHPPSAL; Peptide with targeting and/or antimicrobial activity)”, the “Target(s)” value was “S. epidermidis; also recorded: M. luteus; also recorded: C. albicans; also recorded: E. faecalis; also recorded: C. jejuni”. For “PF-200 (GIELKSLIMAQIERWRQA; Peptide with targeting and/or antimicrobial activity)”, the “Target(s)” value was “S. epidermidis and M. luteus and MRSA and E. faecalis and C. jeikeium”. With “PF-201 (GCRPASLSDADPDGR; Peptide with targeting and/or antimicrobial activity)” the “Target(s)” value was “S. epidermidis; also recorded: M. luteus; also recorded: E. coli; also recorded: C. albicans; also recorded: E. faecalis; also recorded: C. jeikeium; also recorded: C. jejuni”. With “PF-202 (ALNRASLRLALGE; Peptide with targeting and/or antimicrobial activity)” the “Target(s)” value was “S. epidermidis and M. luteus and E. coli and MRSA and E. faecalis and C. jeikeium and C. jejuni”. With “PF-206 (KLRSASKKSLQEKSCGIMPEKPAG; Peptide with targeting and/or antimicrobial activity)” the “Target(s)” value was “M. luteus; also recorded: C. albicans; also recorded: C. jeikeium; also recorded: C. jejuni”. For “PF-207 (AAGCRDLGSLSSLVTNPS; Peptide with targeting and/or antimicrobial activity)”, the “Target(s)” value was “M. luteus; also recorded: C. jeikeium”. For “PF-210 (EREDGCDAMPLP; Peptide with targeting and/or antimicrobial activity)”, the “Target(s)” value was “S. epidermidis and P. aeruginosa and C. albicans and MRSA and E. faecalis and C. jeikeium and C. jejuni”. For “PF-213 (MTTGVDFIIEKV; Peptide with targeting and/or antimicrobial activity)”, the “Target(s)” value was “S. epidermidis”. “PF-214 (GHLRVCWVFSASLLTPFRSATLI; Peptide with targeting and/or antimicrobial activity)” was tested, and the “Target(s)” value was “S. mutans; also recorded: S. epidermidis; also recorded: M. luteus; also recorded: E. coli; also recorded: P. aeruginosa; also recorded: A. baumannii”. “PF-216 (ESVDKITEALEEDGFPAKVQ; Peptide with targeting and/or antimicrobial activity)” was tested, and the “Target(s)” value was “S. mutans; also recorded: E. coli”. In the case of “PF-217 (DWEFTHKTIPQKK; Peptide with targeting and/or antimicrobial activity)”, the “Target(s)” value is reported as “S. mutans”. In the case of “PF-218 (SETPEKPVGTFFYSIYYKIIL; Peptide with targeting and/or antimicrobial activity)”, the “Target(s)” value is reported as “S. epidermidis; also recorded: M. luteus; also recorded: P. aeruginosa; also recorded: A. baumannii”. For “PF-219 (FLALAVIAGLFKVILIYAAPYLK; Peptide with targeting and/or antimicrobial activity)”, the “Target(s)” value was “S. epidermidis; also recorded: M. luteus; also recorded: P. aeruginosa; also recorded: A. baumannii”. With “PF-221 (VFDNIDINF; Peptide with targeting and/or antimicrobial activity)” the “Target(s)” value was “S. epidermidis; also recorded: M. luteus; also recorded: P. aeruginosa”. For “PF-223 (VKFCIECQTKLERKRR; Peptide with targeting and/or antimicrobial activity)”, the “Target(s)” value was “S. epidermidis; also recorded: M. luteus; also recorded: A. baumannii”. “PF-225 (MNCASPEFKKLMELYK; Peptide with targeting and/or antimicrobial activity)” was tested, and the “Target(s)” value was “S. epidermidis”. “PF-228 (NQLGSQAFAQL; Peptide with targeting and/or antimicrobial activity)” was tested, and the “Target(s)” value was “S. mutans”. “PF-229 (DPILIQIGFTRFALRKAEAEKIEIQVEEGVPA; Peptide with targeting and/or antimicrobial activity)” was tested, and the “Target(s)” value was “S. epidermidis; also recorded: M. luteus; also recorded: P. aeruginosa; also recorded: A. baumannii”. “PF-230 (EDKPTNTIQEIKPVKWQ; Peptide with targeting and/or antimicrobial activity)” was tested, and the “Target(s)” value was “S. mutans”. With “PF-231 (AVRDFKKSVREEDEAASLNSPRTIDAQVKTSESTSVKS; Peptide with targeting and/or antimicrobial activity)” the “Target(s)” value was “S. mutans”. For “PF-232 (FDQLYALEREGKLDELLA; Peptide with targeting and/or antimicrobial activity)”, the “Target(s)” value was “S. epidermidis; also recorded: M. luteus”. In the case of “PF-236 (KEIRTATVAELNAKRRLTSAEQALAEVS; Peptide with targeting and/or antimicrobial activity)”, the “Target(s)” value is reported as “S. mutans; also recorded: S. epidermidis; also recorded: E. coli; also recorded: C. albicans; also recorded: S. pneumoniae; also recorded: E. faecalis”.
